Experimental data reported in patent US20120148604A1, “TRP INHIBITORS AND USES THEREOF” (TRANSPOSAGEN BIOPHARMACEUTICALS, INC., priority 2009, published 2012).
Entries after “also recorded” stand apart in the source; their conditions may differ. Like-named read-outs stand apart in the source and are kept apart here.

Columns and labels:
[1] = STZ induced diabetes, von Frey filament mechanical pain threshold; format: in vivo, rat; conditions: STZ treated diabetic control rats vs non-treated control rats
Experimental: Von Frey Filament Test (Chang model): The effect of compounds on mechanical allodynia can be determined by the von Frey filament test in rats with a tight ligation of the L-5 spinal nerve: a model of painful peripheral neuropathy. The surgical procedure is performed as described by Kim et al., Pain 50: 355-363 (1992). A calibrated series of von Frey filaments are used to assess mechanical allodynia (Chaplan et al., J. Neurosci. Methods 53: 55-63 (1994)). Filaments of increasing stiffness are applied perpendicular to the midplantar surface in the sciatic nerve distribution of the left hindpaw. The filaments are slowly depressed until bending occurred and are then held for 4-6 seconds. Flinching and licking of the paw and paw withdrawal on the ligated side are considered positive responses.
Since many patients with diabetes mellitus also suffer from hyperalgesia-derived neuropathic pain, the Trpc4(−/−) rats were studied for this indication. Groups of control and Trpc4 knockout rats were treated with streptozotocin (STZ) in order to induce diabetes. Rats were defined to be in a diabetic state if hyperglycemia and glucosuria occurred. The mechanical induced von Frey filament method was again used to establish altered pain response. When STZ non-treated control rats were compared to STZ diabetic control rats the pain response to mechanical induction was very drastic. […]

[2] = tested on: TRPC4; conditions: HEK cells, cited from earlier work
[3] = Paclitaxel induced cold allodynia, acetone cold response; format: in vivo, rat
Experimental: Cancer patients who are treated with chemotherapy drugs such as paclitaxel often display sensory abnormalities and symptoms of neuropathic pain such as sudden unexplainable pain attacks. In order to study the effects of cation channels on paclitaxel induced pain, Trpc4−/− rats were treated with the anti-cancer drug. Since one of the major symptoms of patients who are treated with paclitaxel is cold allodynia, control and Trpc4−/− rats were exposed to paclitaxel and tested for acetone cold response. Previously control non-paclitaxel treated and paclitaxel treated WT rats were studied for differences in cold allodynia. Based on established cold score calculations the non-treated rats scored an average of 8 while the paclitaxel treated WT rats scored an average of 15. […] When control and Trpc4−/− treated rats were compared the difference in pain sensitivity was dramatic. […] The reversion to nearly wild type cold allodynia score was remarkable in Trpc4 knockout rats.

[4] = tested on: TRPC4; conditions: dominant negative N-term fragment; cited from earlier work

CN(N=O)C(=O)N[C@H]1C(O)O[C@H](CO)[C@@H](O)[C@@H]1O (mixture of isomers) [STZ, streptozotocin]
decrease of threshold for pain [1]: 40%

C=O [Formalin]
duration of nociceptive activity (rubbing face and flipping the head) (Formalin 1.5% 50 μl sc upper lip): 25 to 30 min
start of the activity (wild type rats, Formalin 1.5% 50 μl sc): 10 to 12 s

Cl.NCCCCCCNS(=O)(=O)c1cccc2c(Cl)cccc12 [W-7, N-(6-Aminohexyl)-5-chloro-1-naphthalenesulfonamide hydrochloride]
effect on TRPC4 current ([2]; hydrochloride): significantly decreases TRPC4 current; also recorded: inhibited

Clc1ccc(C(c2ccc(Cl)cc2)n2cc[n+](CC(OCc3ccc(Cl)cc3Cl)c3ccc(Cl)cc3Cl)c2)cc1 (stereo not drawn) [calmidazolium]
effect on TRPC4 current [2]: not inhibited
effect on TRPC4 current ([2]; listed as CMZ): unable to inhibit TRPC4 current

CC(=O)O[C@H]1C(=O)[C@@]2(C)[C@H]([C@H](OC(=O)c3ccccc3)[C@]3(O)C[C@H](OC(=O)[C@H](O)[C@@H](NC(=O)c4ccccc4)c4ccccc4)C(C)=C1C3(C)C)[C@]1(OC(C)=O)CO[C@@H]1C[C@@H]2O [paclitaxel]
cold score ([3]; paclitaxel treated Trpc4 knockout rats): 9
cold score (average) ([3]; paclitaxel treated WT rats, non-treated rats scored 8): 15

B1: first ankyrin domain: dominant negative N-term fragment of TRPC4, residues 61-121 (rat and mouse sequence in b219) (protein, UniProt Q9QUQ5 61-121, looked up, fragment)
chain: ININCIDPLGRTALLIAIENENLELIELLLSFNVYVGDALLHAIRKEVVGAVELLLNHKKP
suppression of TRPC4 currents [4]: successfully suppress TRPC4 currents
